Results published in patent US4356322A, “Phenoxyalkanolamine derivatives” (Veb Arzneimittelwerk Dresden, priority 1977, dated 1982).
Where a name gives a salt, the structure may show the parent alone. Read-outs that look alike come from different tables or passages of the source.

Experiments:
cat = assay: β-mimetic effect on contractility and cardiac frequency in anesthetized cat; format: in vivo; conditions: HCl salt
circulation of dogs = assay: effects on the circulation of dogs under continual intravenous infusion; format: in vivo, dog; conditions: for ED30: Canis lupus familiaris, iv; for effective period / heart's oxygen demand / peripheral cardiovascular system: in vivo; for contractility, cardiac frequency and cardiac output: increases occur at approximately parallel rates
From the text: Column 1: Infusion rate in μg/kg/min
Column 2: Cumulative dose in μg/kg
Rate of pressure increase in the left ventricle (dp/dt/max) in mm Hg·s^-1
ED30 =dosage for 30% increase in inotropy, in μg/kg
Max=maximum increase in percent in inotropy at dose μg/kg
Column 4: Cardiac frequency in n·min^-1
ED30 =dosage for 30% increase in frequency, in μg/kg
Max=maximum increase in percent in frequency at dose μg/kg
Column 5: Cardiac output ml·min^-1 ·kg^-1
Column 6: Diastolic blood pressure in mm Hg
Column 7: Number of animals used in the experiments
X=median values (initial value and after cumulative dose)
%=change in percent of initial value
In these experiments, the compounds were used in the form of hydrochlorides.

in vivo = conditions: rat, iv
rats = conditions: rat, intravenous, acute; HCl salt
β-receptor = conditions: M. J. Davey, Arch. Pharmacol. 179 (1973); cited from earlier work
[1] = dog, i.v. infusion, read-out: ED30, dosage for 30% increase in frequency
[2] = dog, i.v. infusion, read-out: ED30, dosage for 30% increase in inotropy
[3] = dog, 1,00 μg/kg/min, cumulative 10,0 μg/kg
[4] = dog, at 30 μg/kg, i.v. infusion
[5] = dog, 12,5 μg/kg/min, cumulative dose --
[6] = dog, at 50 μg/kg, i.v. infusion
[7] = dog, 10,0 μg/kg/min, cumulative 200 μg/kg
[8] = dog, 0,25 μg/kg/min, cumulative 15,0 μg/kg
[9] = dog, at 15 μg/kg, i.v. infusion
[10] = dog, 0,125 μg/kg/min, cumulative dose --
[11] = dog, at 0,1875 (μg/kg), i.v. infusion
[12] = dog, 1,00 μg/kg/min, cumulative 20,0 μg/kg
[13] = dog, 1,00 μg/kg/min, cumulative 30,0 μg/kg

O=[N+]([O-])c1cccc(NCCNCC(O)COc2ccccc2)c1 (stereo not drawn) [Example 16, 3-[β-(3-nitrophenylamino)-ethyl]-amino-2-hydroxy-1-phenoxypropane]
HR, percent change from initial value in heart frequency (cat; D 0.01 mg/kg i.v.): +13% | dp/dt max, percent change from initial value, left ventricle (cat; D 0.01 mg/kg i.v.): +57% | ED30 (circulation of dogs; [1]): 20 µg/kg | ED30 (circulation of dogs; [2]): 5 µg/kg | Cardiac frequency, change in percent of initial value (circulation of dogs; [3]): +13% | Cardiac frequency, median initial value - value after cumulative dose (circulation of dogs; [3]): 83-94 n.min^-1 | Cardiac output, change in percent of initial value (circulation of dogs; [3]): +32% | Cardiac output, median initial value - value after cumulative dose (circulation of dogs; [3]): 129 to 169 mL/min/kg | dp/dt max, change in percent of initial value (circulation of dogs; [3]): +71% | dp/dt max, median initial value - value after cumulative dose (circulation of dogs; [3]): 3068-5230 mm Hg.s^-1 | Max, maximum increase in percent in frequency (circulation of dogs; [4]): +39% | Max, maximum increase in percent in inotropy (circulation of dogs; [4]): +100% | LD50 (in vivo): 44000 µg/kg

CC(CCc1ccc(O)cc1)NCCc1ccc(O)c(O)c1 (stereo not drawn) [Dobutamine, reference compound]
ED30 (circulation of dogs; [1]): 23 µg/kg | ED30 (circulation of dogs; [2]): 7.5 µg/kg | frequency and cardiovascular dilation (circulation of dogs; at higher dosages): strong increases in frequency and in cardiovascular dilation | Cardiac frequency, change in percent of initial value (circulation of dogs; [5]): +8% | Cardiac frequency, median initial value - value after dose (circulation of dogs; [5]): 78-84 n.min^-1 | Cardiac output, change in percent of initial value (circulation of dogs; [5]): +23% | Cardiac output, median initial value - value after dose (circulation of dogs; [5]): 152 to 186 mL/min/kg | Diastolic blood pressure, change in percent of initial value (circulation of dogs; [5]): +3% | Diastolic blood pressure, median initial value - value after dose (circulation of dogs; [5]): 101-103 mm Hg | dp/dt max, change in percent of initial value (circulation of dogs; [5]): +75% | dp/dt max, median initial value - value after dose (circulation of dogs; [5]): 3088-5410 mm Hg.s^-1 | Max, maximum increase in percent in frequency (circulation of dogs; [6]): +56% | Max, maximum increase in percent in inotropy (circulation of dogs; [6]): +191% | effective period (circulation of dogs; dog): equal to the rather brief effective period of isoprenaline | inotropy (circulation of dogs; in words): strong rise in inotropy

COc1cccc(C(=O)CCN[C@@H](C)[C@H](O)c2ccccc2)c1.Cl [d-l-Oxyphedrine Hydrochloride, reference compound]
HR, percent change from initial value in heart frequency (cat; D 0.50 mg/kg i.v.): +2% | dp/dt max, percent change from initial value, left ventricle (cat; D 0.50 mg/kg i.v.): +38% | Cardiac frequency, change in percent of initial value (circulation of dogs; [7]): +56% | Cardiac frequency, median initial value - value after cumulative dose (circulation of dogs; [7]): 75-117 n.min^-1 | Cardiac output, change in percent of initial value (circulation of dogs; [7]): +65% | Cardiac output, median initial value - value after cumulative dose (circulation of dogs; [7]): 112 to 186 mL/min/kg | Diastolic blood pressure, change in percent of initial value (circulation of dogs; [7]): -13% | dp/dt max, change in percent of initial value (circulation of dogs; [7]): +50% | dp/dt max, median initial value - value after cumulative dose (circulation of dogs; [7]): 3072-4600 mm Hg.s^-1 | Max, maximum increase in percent in inotropy (circulation of dogs; dog, at 500 μg/kg, i.v. infusion): +89% | Max, maximum increase in percent in frequency (circulation of dogs; dog, at 600 μg/kg, i.v. infusion): +104% | ED30, dosage for 30% increase in frequency (circulation of dogs; dog, i.v. infusion): 130 µg/kg | ED30, dosage for 30% increase in inotropy (circulation of dogs; dog, i.v. infusion): 130 µg/kg | heart's oxygen demand (circulation of dogs; dog): excessive rise in the heart's oxygen demand | peripheral cardiovascular system (circulation of dogs; dog): a dilation of the peripheral cardiovascular system | contractility, cardiac frequency and cardiac output (circulation of dogs): increases in contractility, cardiac frequency and cardiac output | LD50 (rats): 26000 µg/kg

Cc1cccc(C)c1NCCNCC(O)COc1ccccc1 (stereo not drawn) [Example 7, 3-[β-(2,6-dimethylphenylamino)-ethyl]-amino-2-hydroxy-1-phenoxypropane hydrochloride]
HR, percent change from initial value in heart frequency (cat; D 0.01 mg/kg i.v.): +14% | dp/dt max, percent change from initial value, left ventricle (cat; D 0.01 mg/kg i.v.): +104% | ED30 (circulation of dogs; [1]): 15 µg/kg | ED30 (circulation of dogs; [2]): 5 µg/kg | Cardiac frequency, change in percent of initial value (circulation of dogs; [8]): +30% | Cardiac frequency, median initial value - value after cumulative dose (circulation of dogs; [8]): 72-93 n.min^-1 | Cardiac output, change in percent of initial value (circulation of dogs; [8]): +35% | Cardiac output, median initial value - value after cumulative dose (circulation of dogs; [8]): 138 to 185 mL/min/kg | Diastolic blood pressure, change in percent of initial value (circulation of dogs; [8]): -3% | dp/dt max, change in percent of initial value (circulation of dogs; [8]): +72% | dp/dt max, median initial value - value after cumulative dose (circulation of dogs; [8]): 3834-6590 mm Hg.s^-1 | Max, maximum increase in percent in frequency (circulation of dogs; [9]): +30% | Max, maximum increase in percent in inotropy (circulation of dogs; [9]): +72% | LD50 (in vivo): 32000 µg/kg

CC(C)NCC(O)COc1cccc2ccccc12 (stereo not drawn) [Propranolol, reference compound]
HR, percent change from initial value in heart frequency (cat; D 0.10 mg/kg i.v.): -8% | dp/dt max, percent change from initial value, left ventricle (cat; D 0.10 mg/kg i.v.): -8%

CC(C)NCC(O)c1ccc(O)c(O)c1 (stereo not drawn) [Isoprenaline-Sulphate, reference compound]
ED30 (circulation of dogs; [1]): 0.06 µg/kg | Cardiac frequency, change in percent of initial value (circulation of dogs; [10]): +51% | Cardiac frequency, median initial value - value after dose (circulation of dogs; [10]): 76-115 n.min^-1 | Cardiac output, change in percent of initial value (circulation of dogs; [10]): +94% | Cardiac output, median initial value - value after dose (circulation of dogs; [10]): 130 to 253 mL/min/kg | Diastolic blood pressure, change in percent of initial value (circulation of dogs; [10]): -3% | dp/dt max, change in percent of initial value (circulation of dogs; [10]): +64% | dp/dt max, median initial value - value after dose (circulation of dogs; [10]): 3136-5140 mm Hg.s^-1 | Max, maximum increase in percent in frequency (circulation of dogs; [11]): +75% | Max, maximum increase in percent in inotropy (circulation of dogs; [11]): +116% | effective period (circulation of dogs; dog): rather brief | heart's oxygen demand (circulation of dogs; dog): excessive rise in the heart's oxygen demand | peripheral cardiovascular system (circulation of dogs; dog): a dilation of the peripheral cardiovascular system | contractility, cardiac frequency and cardiac output (circulation of dogs): increases in contractility, cardiac frequency and cardiac output

Cc1ccccc1OCC(O)CNCCOc1ccc(C(N)=O)cc1 (stereo not drawn) [Tolamolol, 1-[2-(4-carbamoylphenoxy)-ethylamino]-3-(2-methylphenoxy)-propan-2-ol, reference compound]
HR, percent change from initial value in heart frequency (cat; D 0.10 mg/kg i.v.): -10% | dp/dt max, percent change from initial value, left ventricle (cat; D 0.10 mg/kg i.v.): -17% | intrinsic sympathicomimetic activity (β-receptor): does not exhibit an "intrinsic sympathicomimetic activity" | β-blocking efficacy compared with propranolol (β-receptor): about equal to that of propranolol | β-receptor blocking selectivity (β-receptor): cardioselective β-receptor blocking agent | LD50 (in vivo): 133000 µg/kg

Nc1cccc(NCCNCC(O)COc2ccccc2)c1 (stereo not drawn) [Example 17, 3-[β-(3-aminophenylamino)-ethyl]-amino-2-hydroxy-1-phenoxypropane trihydrochloride]
HR, percent change from initial value in heart frequency (cat; D 0.01 mg/kg i.v.): +19% | dp/dt max, percent change from initial value, left ventricle (cat; D 0.01 mg/kg i.v.): +84% | ED30 (circulation of dogs; [1]): 16 µg/kg | ED30 (circulation of dogs; [2]): 5.5 µg/kg | Cardiac frequency, change in percent of initial value (circulation of dogs; [12]): +33% | Cardiac frequency, median initial value - value after cumulative dose (circulation of dogs; [12]): 85-113 n.min^-1 | Cardiac output, change in percent of initial value (circulation of dogs; [12]): +44% | Cardiac output, median initial value - value after cumulative dose (circulation of dogs; [12]): 138 to 198 mL/min/kg | Diastolic blood pressure, change in percent of initial value (circulation of dogs; [12]): +1% | Diastolic blood pressure, median initial value - value after cumulative dose (circulation of dogs; [12]): 103-104 mm Hg | dp/dt max, change in percent of initial value (circulation of dogs; [12]): +84% | dp/dt max, median initial value - value after cumulative dose (circulation of dogs; [12]): 3071-5663 mm Hg.s^-1 | Max, maximum increase in percent in inotropy (circulation of dogs; dog, at 40 μg/kg, i.v. infusion): +93% | Max, maximum increase in percent in frequency (circulation of dogs; [6]): +49% | LD50 (in vivo): 66000 µg/kg

OC(CNCCNc1ccccc1Cl)COc1ccccc1 (stereo not drawn) [Example 1, 3-[β-(2-chlorophenylamino)-ethyl]-amino-2-hydroxy-1-phenoxypropane]
HR, percent change from initial value in heart frequency (cat; D 0.01 mg/kg i.v.): +11% | dp/dt max, percent change from initial value, left ventricle (cat; D 0.01 mg/kg i.v.): +59% | ED30 (circulation of dogs; [1]): 20 µg/kg | ED30 (circulation of dogs; [2]): 11 µg/kg | Cardiac frequency, change in percent of initial value (circulation of dogs; [13]): +34% | Cardiac frequency, median initial value - value after cumulative dose (circulation of dogs; [13]): 80-107 n.min^-1 | Cardiac output, change in percent of initial value (circulation of dogs; [13]): +69% | Cardiac output, median initial value - value after cumulative dose (circulation of dogs; [13]): 115 to 195 mL/min/kg | Diastolic blood pressure, change in percent of initial value (circulation of dogs; [13]): +2% | Diastolic blood pressure, median initial value - value after cumulative dose (circulation of dogs; [13]): 111-113 mm Hg | dp/dt max, change in percent of initial value (circulation of dogs; [13]): +76% | dp/dt max, median initial value - value after cumulative dose (circulation of dogs; [13]): 3028-5326 mm Hg.s^-1 | Max, maximum increase in percent in inotropy (circulation of dogs; [6]): +91% | Max, maximum increase in percent in frequency (circulation of dogs; dog, at 60 μg/kg, i.v. infusion): +37% | LD50 (in vivo): 21000 µg/kg
